Laboratory results as given in US20250073234A1, “COMBINATION THERAPIES INCLUDING PARP1 INHIBITORS” (Cornell University, priority 2022, published 2025).
Read-outs that look alike come from different tables or passages of the source.

How the values were obtained:
[1] = tested on: c-FOS and c-JUN at the AP-1A site of the SQSTM1 promoter; test: ChIP-PCR of SQSTM1 promoter (AP-1A) occupancy in WPMY-1 cells; type: cell-based, human; conditions: 48 h
Experimental: WPMY-1 cells were fixed by adding directly to the culture medium formaldehyde (HCHO; from a 37% HCHO-10% methanol stock, Calbiochem) to a final concentration of 1%. […] Chromatin was sheared in a COVARIS S220 Focused-ultrasonicator to yield DNA fragment sizes of 200-1000 base pairs, and diluted 10 times in dilution buffer (20 mM Tris pH 8.0, 2 mM EDTA, 1% triton X-100, 150 mM NaCl and protease inhibitors). Immunoprecipitations were carried out overnight at 4° C. using the following protein A-antibodies complexes: cFOS, FOSB, cJUN, JUNB.
Immunocomplexes were washed three times with buffer TSEI (20 mM Tris pH 8.0, 2 mM EDTA, 1% triton X-100, 150 mM NaCl, 0.1% SDS and protease inhibitors), three washes with buffer TSEII (20 mM Tris pH 8.0, 2 mM EDTA, 1% triton X-100, 500 mM NaCl, 0.1% SDS and protease inhibitors), one wash with buffer TSEIII (10 mM Tris pH 8.0, 250 mM LiCl, 1 mM EDTA, 1% NP40, 1% Deoxycholate and protease inhibitors) and one wash with TE pH 8.0.
Immunocomplexes were extracted in TE containing 1% SDS, and protein-DNA cross-links were reverted by heating at 65° C. overnight. DNA was extracted by using a PCR purification kit (Qiagen). One-tenth of the immunoprecipitated DNA was used in each PCR, for which the promoter-specific primers were used.

[2] = tested on: tumor-invaded lymph nodes and bones; test: Castrated TRAMP+/FVB mice, IHC of metastatic lymph nodes and bone; type: in vivo, mouse; conditions: for αSMA expression and HA deposition in metastatic lymph nodes: 3 weeks
Experimental: Tissues from indicated mice were isolated, fixed in zinc buffered formalin overnight at 4° C., dehydrated, and embedded in paraffin. Sections (5 μm) were stained with hematoxylin and eosin (H&E). For immunohistochemistry, sections were deparaffinized, rehydrated, and then treated for antigen retrieval. After blocking in Protein Block Serum-Free solutions (DAKO), tissues were incubated with primary antibody overnight at 4° C. followed by incubation with biotinylated secondary antibody. Endogenous peroxidase was quenched in 3% H2O2 in water for 10 minutes at room temperature. Antibodies were visualized with avidin-biotin complex (Vectastain Elite; Vector Laboratories) using diaminobenzidine as the chromogen. Stained sections were analyzed with a Zeiss light microscope supplemented with Zen 3.3 Bule edition software.
For Olaparib treatment in mice, 13 weeks-old male TRAMP^+/FVB were surgical castrated, after 10 days n=16, were randomly distributed to receive vehicle, n=8, or Olaparib n=8 (5 mg/kg/, 5 days each, i.p.). Mice were euthanized 3 weeks after the initiation of the treatment. Prostate and other organs were collected and analyzed histologically.

PC3 cells = test: Trans-well migration and invasion of PC3 cells co-cultured with pre-treated WPMY-1 cells; type: cell-based, human; conditions: co-culture with Olaparib-pretreated WPMY-1, 20 h, basal and ADT
Experimental: For co-culture migration and invasion assays, 8×10^4 WPMY-1 cells were plated onto the lower chamber of a 24 well plate in DMEN containing 10% FBS (basal conditions) or 10% charcoal stripped FBS (ADT conditions) and vehicle (DMSO) or Olaparib 10 μM or Olaparib 10 μM+PEGPH20 2.5 μg/ml for 48 hours. 5×10^4 PC3 were seeded in a transwell chamber (Corning Biocoat control inserts) or in a transwell invasion chamber (Corning BioCoat Matrigel Invasion Chambers), both with 8 μm membrane. PC3 were allowed to migrate or invade for 20 hours at 37° C., 5% CO2. Cells were fixed in cold methanol and stained with crystal violet.

WPMY-1 fibroblasts = test: GSEA of RNAseq data from WPMY-1 fibroblasts; type: cell-based, human; conditions: for GSEA inflammatory signaling pathways (TNFα, IL-6, JAK-STAT): Olaparib 20 μM vs DMSO
Experimental: Total RNA was extracted using Quick-RNA MiniPrep kit (Zymo Research). Libraries were prepared from 200 ng of total RNA using the QuantSeq 3′ mRNA-Seq Library Prep Kit FWD for Illumina from Lexogen, and optional UMIs (Vienna, Austria). Barcoded libraries were pooled, and single end sequenced (1×75) on the Illumina NextSeq 500 using the High output V2.5 kit (Illumina Inc., San Diego CA).
Peaks were annotated with ChipSeeker R package. […].

Compound | recruitment of c-FOS and c-JUN to the AP-1 regulatory site in lactate-treated cells ([1]; added to lactate-treated WPMY-1 cells) | recruitment of c-FOS and c-JUN to the AP-1A binding site in the SQSTM1 promoter ([1]; Olaparib 20 μM) | HA in bone marrow stromal cells and growth plate [2] | αSMA expression and HA deposition in metastatic lymph nodes [2] | αSMA expression and HA deposition in metastatic lymph nodes ([2]; listed as Ola) | HA in bone marrow stromal cells and growth plate ([2]; listed as Ola) | migration and invasion of PC3 cells (PC3 cells) | GSEA inflammatory signaling pathways (TNFα, IL-6, JAK-STAT) (WPMY-1 fibroblasts) | GSEA inflammatory signaling pathways (TNFα, IL-6, JAK-STAT) (WPMY-1 fibroblasts; listed as Ola) | GSEA signatures of extracellular matrix remodeling / CAF activation (WPMY-1 fibroblasts; basal or ADT conditions)
NC(=O)c1ccc[n+]([C@@H]2O[C@H](COP(=O)([O-])OP(=O)(O)OC[C@H]3O[C@@H](n4cnc5c(N)ncnc54)[C@H](O)[C@@H]3O)[C@@H](O)[C@H]2O)c1 [NAD^+] | rescued |  |  |  |  |  |  |  |  | 
O=C(c1cc(Cc2n[nH]c(=O)c3ccccc23)ccc1F)N1CCN(C(=O)C2CC2)CC1 [Olaparib] |  | impaired the recruitment of c-FOS and c-JUN | increased HA deposition in the growth plate and stromal areas | increased stromal content upon Olaparib treatment | increased «SMA expression and higher hyaluronan (HA) deposition | higher levels of HA | increased migration and invasion of PCa cells | increased inflammatory related signatures | significant enrichment was found in inflammatory signaling pathways | enrichment of signatures corresponding to extracellular matrix remodeling
